Test results from ChEMBL document CHEMBL4145638 (J Med Chem, 2018).

Columns and labels:
[1] = target: Neuraminidase (Influenza A virus (A/Memphis/1/1971(H3N2)), UniProt P03471); assay: Inhibition of Influenza A virus (A/Paris/908/97 (H3N2)) neuraminidase activity by fluorometric assay
[2] = target: T1, Neuraminidase (Influenza A virus, UniProt B4URF0); assay: Inhibition of Influenza A virus (A/Paris/2590/2009(H1N1)) neuraminidase activity by fluorometric assay
[3] = target: T1, Neuraminidase; set-up: species or system Influenza A virus (A/California/04/2009(H1N1))
[4] = target: T1, Neuraminidase; set-up: species or system A/Babol/36/2005(H3N2)
[5] = in vitro; conditions: chicken, chicken embryo fibroblasts
[6] = in vitro; conditions: human, liver microsomes
[7] = in vitro; conditions: human, liver microsomes; remark: listed apart in the source
[8] = in vitro; conditions: human, liver
[9] = in vitro; conditions: human, liver microsomes; remark: listed apart in the source
[10] = Drug metabolism in human liver microsomes assessed as (3R,4R,5S)-4-Acetamido-5-((4(diethylamino)benzyl)amino)-3-(pentan-3-yloxy)cyclohex-1-ene-1-carboxylic acid formation in presence of NADPH by LC/MS/MS analysis; format: ADME, microsome
[11] = in vitro; conditions: human, liver microsomes; remark: listed apart in the source
[12] = target: T1, Neuraminidase
[13] = system: Influenza A virus; assay: microbe, parasite or virus in culture; conditions: A/Puerto Rico/8/1934(H1N1), MDCK, 48 h
[14] = in vitro; conditions: dog, MDCK cells
[15] = system: Influenza A virus; assay: microbe, parasite or virus in culture; conditions: MDCK, 48 h
[16] = target: T1, Neuraminidase; set-up: species or system A/Anhui/1/2013(H7N9)
[17] = target: Neuraminidase (Influenza A virus (A/Memphis/1/1971(H3N2)), UniProt P03471); assay: Inhibition of Influenza A virus (H3N2) neuraminidase activity
[18] = target: T1, Neuraminidase; assay: Inhibition of Influenza A virus (H1N1) neuraminidase activity
[19] = human, plasma, 2 h, 100 µM
[20] = system: Mus musculus; assay: Acute toxicity in Kunming mouse assessed as change in body weight at 0.5 to 1 g/kg, ig; format: organism-based; conditions: in vivo, po
[21] = system: Mus musculus; assay: Acute toxicity in Kunming mouse assessed as mortality at 0.5 to 1 g/kg, ig; format: organism-based; conditions: in vivo, po
[22] = in vitro; conditions: human, plasma
[23] = in vitro; conditions: human, plasma; remark: listed apart in the source
[24] = system: Influenza A virus
[25] = in vitro; conditions: human, plasma; remark: listed apart in the source
[26] = in vitro; conditions: human, plasma; remark: listed apart in the source
[27] = Drug level in human liver microsomes treated with Ethyl(3R,4R,5S)-4-acetamido-5-((4-(diethylamino)benzyl)-amino)-3-(pentan-3-yloxy)cyclohex-1-ene-1-carboxylate assessed as compound formation in presence of NADPH by LC/MS/MS analysis; format: ADME, microsome
[28] = target: Neuraminidase (Influenza A virus (A/Memphis/1/1971(H3N2)), UniProt P03471); assay: Inhibition of Influenza A virus Taiwan/3446/2002 (H3N2) neuraminidase activity using fluorogenic substrate MU-NANA pre-incubated for 30 mins before fluorogenic substrate addition and measured after 1 hr by spectrofluorometry
[29] = target: T1, Neuraminidase; assay: Inhibition of Influenza A virus SN33 (H1N1) neuraminidase activity using fluorogenic substrate MU-NANA pre-incubated for 30 mins before fluorogenic substrate addition and measured after 1 hr by spectrofluorometry
[30] = in vitro; conditions: human, plasma; remark: listed apart in the source

Chain of Neuraminidase (Influenza A virus (A/Memphis/1/1971(H3N2)), UniProt P03471) (P03471 whole entry): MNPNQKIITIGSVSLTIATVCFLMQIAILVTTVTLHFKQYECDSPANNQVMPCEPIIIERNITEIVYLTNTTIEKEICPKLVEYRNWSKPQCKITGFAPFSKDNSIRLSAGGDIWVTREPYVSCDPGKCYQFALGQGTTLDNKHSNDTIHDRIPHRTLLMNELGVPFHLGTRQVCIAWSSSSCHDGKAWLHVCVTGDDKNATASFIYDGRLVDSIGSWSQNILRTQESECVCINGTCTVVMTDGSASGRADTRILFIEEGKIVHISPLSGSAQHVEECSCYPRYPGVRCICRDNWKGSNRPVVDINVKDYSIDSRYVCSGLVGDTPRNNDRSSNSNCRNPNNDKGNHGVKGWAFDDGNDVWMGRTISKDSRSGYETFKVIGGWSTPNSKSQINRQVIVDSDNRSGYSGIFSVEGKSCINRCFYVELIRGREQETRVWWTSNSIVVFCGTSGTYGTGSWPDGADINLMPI
T1 sequence (B4URF0 whole entry): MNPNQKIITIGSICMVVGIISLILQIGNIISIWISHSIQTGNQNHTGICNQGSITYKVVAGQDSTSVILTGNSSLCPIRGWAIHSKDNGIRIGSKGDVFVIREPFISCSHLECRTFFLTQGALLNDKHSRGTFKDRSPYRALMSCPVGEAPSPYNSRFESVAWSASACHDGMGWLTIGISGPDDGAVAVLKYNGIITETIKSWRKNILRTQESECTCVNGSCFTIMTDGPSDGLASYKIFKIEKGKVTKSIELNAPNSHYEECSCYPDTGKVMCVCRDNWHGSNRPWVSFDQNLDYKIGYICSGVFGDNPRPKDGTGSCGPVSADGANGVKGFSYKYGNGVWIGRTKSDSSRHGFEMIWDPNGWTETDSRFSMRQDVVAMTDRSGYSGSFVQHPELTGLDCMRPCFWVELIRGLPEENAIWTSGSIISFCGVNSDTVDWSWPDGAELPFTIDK

| Structure (SMILES) | IC50 [3] [nM] | IC50 [4] [nM] | CC50 at 48 h [5] [nM] | IC50 [12] [nM] | EC50 [13] [nM] | CC50 at 48 h [14] [nM] | EC50 [15] [nM] | IC50 [16] [nM] | further results |
| --- | --- | --- | --- | --- | --- | --- | --- | --- | --- |
| CC(=O)N[C@H]1[C@H]([C@H](O)[C@H](O)CO)OC(C(=O)O)=C(C/C=C/c2ccc(C)cc2)[C@@H]1O | – | – | – | – | – | – | – | – | Ki [1]: 219000 nM; Ki [2]: 1700 nM |
| CCC(CC)O[C@@H]1C=C(C(=O)O)C[C@H](NCc2ccc(-c3cccs3)cc2)[C@H]1NC(C)=O | 21.3 | 354 | > 200000 | – | – | – | – | – | – |
| CCOC(=O)C1=C[C@@H](OC(CC)CC)[C@H](NC(C)=O)[C@@H](NCc2ccc(N(CC)CC)cc2)C1 | – | – | – | – | – | – | – | – | microsomal CLint at 10 min [6]: 165 µL/min/mg; remaining at 1 h [7]: 87.1%; CLint scaled at 10 min [8]: 149 mL/min/kg; half-life at 10 min [9]: 8.4 min; Drug metabolism [10]: Metabolite_Detected; remaining at 1 h [11]: 0.6% |
| CCC(CC)O[C@@H]1C=C(C(=O)O)C[C@H](NCc2ccc(N3CCSCC3)cc2)[C@H]1NC(C)=O | 48.4 | 62.6 | > 200000 | 74.2 | 4400 | > 250000 | 19000 | 156 | – |
| CCC(CC)O[C@@H]1C=C(C(=O)O)[C@H](n2cc(C(O)CC)nn2)[C@H](N)[C@H]1NC(C)=O (stereo partly drawn) | – | – | – | – | – | – | – | – | Ki [17]: 20 nM; Ki [18]: > 100 nM |
| CCC(CC)O[C@@H]1C=C(C(=O)O)C[C@H](NCc2ccc(N(CC)CC)cc2)[C@H]1NC(C)=O | 0.55 | 1.05 | > 200000 | 0.35 | 70 | > 250000 | 1700 | 1.79 | microsomal CLint at 10 min [6]: < 9.6 µL/min/mg; Stability [19]: 120.7%; Activity [20]: Non-Toxic; Activity [21]: Non-Toxic; remaining at 0.5 h, 100 µM [22]: 120%; remaining at 1 h [7]: 95.4%; remaining at 10 min, 100 µM [23]: 118%; CLint scaled at 10 min [8]: < 8.6 mL/min/kg; half-life at 10 min [9]: > 145 min; EC50 [24]: 610 nM; remaining at 0 min, 100 µM [25]: 100%; remaining at 1 h [11]: 82.7%; remaining at 1 h, 100 µM [26]: 120%; Drug metabolism [27]: Metabolite_Detected |
| CCC(CC)O[C@@H]1C=C(C(=O)O)C[C@H](NCc2ccc(N(CC)c3ccccc3)cc2)[C@H]1NC(C)=O | 698 | 474 | > 200000 | 560 | – | – | – | 2590 | – |
| CCC(CC)O[C@@H]1C=C(C(=O)O)C[C@H](NCc2ccc(N(C)c3ccccc3)cc2)[C@H]1NC(C)=O | 29.8 | 5.65 | > 200000 | 2.29 | 1950 | > 250000 | 25600 | 11.4 | – |
| CCC(CC)O[C@@H]1C=C(C(=O)O)C[C@H](NCc2ccc(N3CCCCC3)cc2)[C@H]1NC(C)=O | 18.6 | 17.1 | > 200000 | 20.7 | – | – | – | 40.5 | – |
| CCC(CC)O[C@@H]1C=C(C(=O)O)C[C@H](NCc2ccc(-n3cccn3)cc2)[C@H]1NC(C)=O | 297 | 869 | > 200000 | 593 | – | – | – | 9120 | – |
| CCC(CC)O[C@@H]1C=C(C(=O)O)C[C@H](NCc2ccc(NC(C)=O)cc2)[C@H]1NC(C)=O | – | – | > 200000 | – | – | – | – | – | – |
| CCC(CC)O[C@@H]1C=C(C(=O)O)[C@H](n2cc(C(O)CC)nn2)[C@H](NC(=N)N)[C@H]1NC(C)=O (stereo partly drawn) | – | – | – | – | – | – | – | – | Ki [17]: 4 nM; Ki [18]: > 100 nM |
| CC(=O)N[C@H]1[C@H]([C@@H](O)[C@@H](O)CO)OC(C(=O)O)=C[C@@H]1NC(=N)NC(=O)CSc1cccc2ccccc12 | – | – | – | – | – | – | – | – | IC50 [28]: 25 nM; IC50 [29]: 21 nM |
| CCC(CC)O[C@@H]1C=C(C(=O)O)C[C@H](NCc2ccc(N(C)C)cc2)[C@H]1NC(C)=O | 4.09 | 4.11 | > 200000 | 5.74 | – | – | – | 8.41 | – |
| CCC(CC)O[C@@H]1C=C(C(=O)O)C[C@H](NCc2ccc(-n3cccc3)cc2)[C@H]1NC(C)=O | 59.3 | 327 | > 200000 | 504 | 690 | > 250000 | 29000 | 1820 | – |
| CCC(CC)O[C@@H]1C=C(C(=O)O)C[C@H](NCc2ccc(Nc3ccccc3)cc2)[C@H]1NC(C)=O | 66.7 | 31.1 | > 200000 | 27.4 | – | – | – | 94.2 | – |
| CCC(CC)O[C@@H]1C=C(C(=O)O)C[C@H](NCCCNc2cccc(Cl)c2C)[C@H]1NC(C)=O | – | – | – | – | – | – | – | – | IC50 [17]: 31 nM; IC50 [18]: 0.59 nM |
| CCC(CC)O[C@@H]1C=C(C(=O)O)C[C@H](NCc2ccc(N3CCCC3)cc2)[C@H]1NC(C)=O | 2.31 | 1.81 | > 200000 | 2.13 | 220 | > 250000 | 2350 | 6.51 | – |
| O=C(O)Cc1ccccc1Nc1c(Cl)cccc1Cl [DICLOFENAC] | – | – | – | – | – | – | – | – | microsomal CLint at 10 min [6]: 112 µL/min/mg; CLint scaled at 10 min [8]: 101 mL/min/kg; half-life at 10 min [9]: 12.3 min |
| CCC(CC)O[C@@H]1C=C(C(=O)O)C[C@H](N)[C@H]1NC(C)=O [OSELTAMIVIR CARBOXYLATE] | – | – | > 200000 | – | 40 | > 250000 | 900 | – | – |
| CC(C)[N+](C)(CCOC(=O)C1c2ccccc2Oc2ccccc21)C(C)C [PROPANTHELINE BROMIDE] | – | – | – | – | – | – | – | – | remaining at 0.5 h, 100 µM [22]: 44.6%; remaining at 2 h, 100 µM [30]: 1.8%; remaining at 10 min, 100 µM [23]: 73.4%; remaining at 0 min, 100 µM [25]: 100%; remaining at 1 h, 100 µM [26]: 16.8% |
| C[C@]12CC[C@H]3[C@@H](CCC4=CC(=O)CC[C@@]43C)[C@@H]1CC[C@@H]2O [TESTOSTERONE] | – | – | – | – | – | – | – | – | microsomal CLint at 10 min [6]: 52.1 µL/min/mg; CLint scaled at 10 min [8]: 46.9 mL/min/kg; half-life at 10 min [9]: 26.6 min |
| CC(=O)N[C@H]1[C@H]([C@H](O)[C@H](O)CO)OC(C(=O)O)=C[C@@H]1NC(=N)N [ZANAMIVIR] | – | – | > 200000 | – | 50 | > 250000 | 270 | – | – |
